Data on two compounds can be found in patent US12054762B2, “Methods of protein production using anti-senescence compounds” (WYETH LLC, priority 2007, dated 2024).

Where two headings read alike, the source gives them in different places.

The subject of data set [1] is MYO-29 cell line. The data set is described as follows: Dish scale carnosine experiments, MYO-29 cell line culture. It counts as cell-based. The following applies: 10 mM carnosine added to dishes on day 4, 7 or 10; harvested day 12; vs no carnosine. Here is the method: A MYO-29 cell line was cultured in a serum free production medium in a bioreactor with a 1 L working volume and was temperature shifted from 37° C. to 31° C. on day 4. The pH of the bioreactor was held at 7.00 and the dissolved oxygen was at 30% air saturation. Cell culture medium was then taken from the bioreactor on day 4, day 7, and day 10 and put into culture dishes with an 8 ml working volume and placed into a 31° C. incubator, where the dish cultures were cultured until day 12. The cells were supplemented with a feed medium on days 5 and 7. On day 5, 10% (v/v) of feed medium was added to the cell cultures and on day 7, 5% (v/v) of feed medium was added to the cell cultures. 10 mM of carnosine was added on day 4, day 7, and day 10, respectively, to the dishes and the cell culture medium was harvested on day 12.

For data set [2], the system named is human or rodent transformed and neoplastic cells. The conditions noted are these: cited from earlier work.
Data set [3] deals with Chinese Hamster Ovary (CHO) Cell Line Producing Recombinant TNFR Fusion Protein. As to the kind of experiment: Carnosine in 1 L bioreactor culture of cells producing recombinant TNFR fusion protein. In kind it is cell-based. The following applies: 20 mM carnosine added day 2. As for the experimental part: A TNFR fusion protein cell line was cultured in a serum free production medium in a bioreactor with a 1 L working volume. On day 1, the temperature was shifted from 37° C. to 29.5° C., sodium butyrate was added to a final concentration of 1 mM, and HMBA was added to a final concentration of 3 mM. The pH of the bioreactor was held at 6.95 and the dissolved oxygen was at 60% air saturation. On day 2, carnosine was added to the culture to a final concentration of 20 mM. The cells were supplemented with a 5% (v/v) feed medium on days 3, 6, 8, and 10. The cell culture medium was harvested on day 12. Four separate control bioreactors were run in which CHO cells expressing a recombinant TNFR fusion protein were grown under conditions identical to those described above, except that carnosine was not added on day 2. The control data in FIGS. 4-11 is the average of the four control bioreactor runs.

Data set [4] has as its system MYO-29 cell line. The data set is described as follows: Carnosine addition to 1 L bioreactor fed-batch culture, MYO-29 cell line. The following applies: 20 mM carnosine added day 4. In kind it is cell-based. Here is the method: Five bioreactors were inoculated with 0.9×10^6 cells/ml with a 1 L working volume of a MYO-29 cell line in a serum free inoculation medium. All the bioreactors were fed 5% (v/v) of a feed medium on days 3, 5, 7, and 12 of a 14-day run. A day 10 feed of 5% (v/v) of the feed medium was added to two of the control bioreactors and one containing carnosine. The conditions of the bioreactors were held at a temperature of 37° C., a pH of 7.00, and a dissolved oxygen level at 30% air saturation.
The bioreactors were harvested on day 14 of the production run. Samples were taken throughout the run to monitor the progress of the cell culture medium. The controls performed as expected.

The test system of data set [5] is human diploid fibroblasts and human fetal lung (primary cell lines). The following applies: 20 mM in culture media; cited from earlier work.
In data set [6] the test system is MYO-29 cell line. As to the kind of experiment: Different concentrations of carnosine in 1 L bioreactor culture, MYO-29 cell line. It counts as cell-based. As for the experimental part:
Four bioreactors were inoculated with 0.4×10^6 cells/ml with a 1 L working volume of a MYO-29 cell line in a serum free inoculation medium. All the bioreactors were all fed 5% (v/v) of a feed medium on day 7 of the 14-day run. The conditions of the bioreactor were held at a temperature of 37° C., a pH of 7.00, and a dissolved oxygen level at 30% air saturation.
All cells were cultured for four days at which point the temperature was shifted in all of the bioreactors to 31° C. […] All bioreactors were harvested on day 12 of the production run. Samples were taken throughout the run to monitor the progress of the cell culture medium. The controls performed generally as expected, except one control had slightly lower daily viabilities than previously seen.

The conditions of data set [7]: addition of the chemical agent to cell culture; cited from earlier work.
The mark [8] stands for this setting: vs average of 4 control bioreactors.

In the case of `NCCC(=O)N[C@@H](Cc1cnc[nH]1)C(=O)O` [carnosine], in data set [1], the acidic peaks entry is “decreasing” and the “high molecular weight aggregates” value is on record as “decreasing”. Further, in data set [2] (Dulbecco's Modified Eagle's Medium (DMEM), contains 1 mM pyruvate), the cytotoxicity result is on record as “not”. Besides, the cytotoxicity entry in data set [2] (Minimal Essential Medium (MEM), lower glucose levels) is on record as “cytotoxic”. In addition, the “amount of misfolded and/or aggregated TNFR fusion protein” value in data set [3] (hydrophobic interaction chromatography (HIC), vs controls) is listed as “significantly reduced”. Also, the “amount of high molecular weight (HMW) aggregates” value in data set [3] (size exclusion chromatography (SEC), vs controls) is recorded as “significantly reduced”. In data set [3] (setting [8]), the “cell growth (viable cell density)” value is reported as “not significantly affected” and the cell viability result was “not significantly affected”. In data set [3] (vs controls), the “glycosylation of the produced TNFR fusion protein (total sialylation, sialylated N-linked oligosaccharides)” value was “not significantly different”; the product titer result is given as “increased”; the specific cellular productivity entry is on record as “increased”. Moreover, the “daily cell viability upon being harvested” value in data set [4] (harvest day 14, compared to bioreactors without carnosine) is “higher”. For the same compound, in data set [4] (harvest day 14, vs controls), the “titer at the time of harvest” value is reported as “higher titer”. Further, in data set [4] (vs controls), the “cumulative specific cellular productivity” value was “better” and the “high molecular weight aggregates” value was “decrease”. In addition, in data set [5], the lifespan of cells entry is given as “extend the lifespan”. For the same compound, the “high molecular weight aggregates” value in data set [6] (20 mM or 40 mM carnosine added day 4, compared to the controls) was “decrease”. Besides, in data set [6] (20 mM or 40 mM carnosine added day 4, compared with one of the controls), the daily titer entry is “similar”. For the same compound, the “daily cell viability upon being harvested” value in data set [6] (20 mM or 40 mM carnosine added day 4, harvest day 12, compared to two control bioreactors) is reported as “higher viability”. Also, the “daily viable cell density” value in data set [6] (20 mM or 40 mM carnosine added day 4, vs controls) is listed as “fairly similar with the exception of the bioreactor with 4 mM of carnosine”. Also, in data set [6] (40 mM carnosine added day 4), the “cumulative specific cellular productivity” value was “higher”.
As for `CCCC(=O)[O-].[Na+]` [sodium butyrate], the “cell growth and viable cell number” value in data set [7] was “cell growth ceases and the viable cell number decreases”.
